Reference: PMC8121762, “Peptidomics of enteroendocrine cells and characterisation of potential effects of a novel preprogastrin derived-peptide on glucose tolerance in lean mice” (Peptides, 2021)
Where no end group is shown, it is not given here.

Assay: Pharmacokinetics studies in mice (i.v. and s.c. bolus, plasma LC–MS/MS)
Assay type: in vivo
Conditions: mouse; for AUC / bioavailability: both sexes, C57BL/6 N J, plasma LC–MS/MS; for AUC: tail vein blood over 90 min; for Clearance: s.c.
Experimental: Male and female mice aged between 12–18 weeks old were used for these studies. Gast p59−79, ChgA 435−462a and Sst 25−36 were administered intravenously (i.v.) at 1 mg/kg and subcutaneously (s.c.) at various doses (see Fig. 7A, B and C for details on specific doses for each peptide). Blood samples were collected using EDTA coated microvette tubes (Starsedt, Leicester, UK) from the tail vein at various time points over 90 min. Blood was centrifuged (2000 g, 10 min, 4 °C) and the plasma separated. A 0.1 M sodium citrate (Sigma-Aldrich) buffer (adjusted to pH 3 with citric acid (Sigma-Aldrich)) was added to the plasma at a dilution of 1 in 10 to prevent degradation of Gast p59−79 and Sst 25−36. Plasma was stored -70 °C till extraction.
On the day of analysis, plasma samples were thawed, spiked with a stable isotope labelled version of Gast p59−79, ChgA 435−462a or Sst 25−36, and crashed with 200 μL 80 % ACN. After centrifuging, supernatants were removed and dried under gaseous nitrogen at 40 °C using a SPE Dry evaporator system (Biotage, Upsalla, Sweden). SPE was performed as described previously.
A Xevo TQ-XS triple quadrupole mass spectrometer coupled to H-class Aquity UPLC system enabled high throughput and targeted sample analysis. The column used was a Waters HSS T3 2.1 × 50 mm column at 60 °C and flowing at 350 μL/min. LC–MS/MS analysis was performed using positive ESI with a spray voltage of 3 kV, desolvation temperature 600°C, gas flow rate 1000 L/h and cone voltage of 40 V. Solvent A was 0.1 % FA in water (v/v) and Solvent B was 0.1 % FA in ACN (v/v). Each sample (40 μL per sample) was injected onto the column for 30 s with starting conditions set at 90 % A and 10 % B before the % B was increased to 50 % over the course of 3.5 min. The column was flushed with 90 % B for 1.5 min before initial conditions were restored. Total run time per sample was 5.5 min. Table 1 details the specifications used to quantify Gast p59−79, ChgA 435−462a, Sst 25−36 and their stable isotope labelled versions on a Xevo TQ-XS mass spectrometer.
Raw data files obtained on the Xevo TQ-XS triple quadrupole mass spectrometer were analysed using TargetLynx XS v4.2 software (Waters). Peptides were quantified by integrating the corresponding peaks and normalised to an internal standard if available. For pharmacokinetics studies, the concentration of peptide was estimated by comparing against a calibration line. SAAM II v2.2.1 (The Epsilon Group) with a Rosenbrock integrator and no maximum number of iterations was used to create a model for Gast p59−79 distribution and elimination upon single dose administration to mice.

APSDPRLRQFLQ [Sst 25−36]
AUC (sc, 10 mg/kg): 3.3 ng·h/mL
detection in plasma after s.c. injection (in vivo, sc, 10 mg/kg): only detectable at low concentrations
half-life in vivo (in words) (pilot data): very short half-life
Clearance (10 mg/kg): 3030 mL/h/kg

AEDQELESLSAIEAELEKVAHQLQALRR-NH2 [ChgA 435−462a]
AUC (iv, 1 mg/kg): 362 ng·h/mL
bioavailability (sc, 1 mg/kg): 46.7%
AUC (sc, 1 mg/kg): 169 ng·h/mL
bioavailability (sc, 3 mg/kg): 50.4%
AUC (sc, 3 mg/kg): 547 ng·h/mL
mass delivery rate required to obtain steady state concentration of 1 nM (estimated from PK data (SAAM II model), osmotic pump infusion): 0.29 mg/kg/day
Clearance (1 mg/kg): 5.92 mL/h/kg
Clearance (3 mg/kg): 5.48 mL/h/kg
